Data reported in the NIST ThermoML archive (doi:10.1016/j.fluid.2019.112241).
Several values for one entry are separate records, joined by “and”; a condition that tells them apart may be missing. Identical values can stand only once.

Settings: Liquid, Transpiration method

CCCCN(CCCC)C(C)=O [N,N-dibutylacetamide]
Settings	vapor or sublimation pressure
291.8 K	0.0013 kPa
298.8 K	0.00247 kPa
300.9 K	0.00292 kPa
301.8 K	0.00324 kPa
303.9 K	0.00402 kPa
306.6 K	0.00505 kPa
306.7 K	0.00514 kPa
308.8 K	0.00635 kPa
312.5 K	0.00844 kPa
315.7 K	0.0107 kPa
317.5 K	0.01304 kPa
320.4 K	0.01631 kPa
320.7 K	0.01642 kPa
320.8 K	0.01653 kPa
322.6 K	0.01907 kPa
323.6 K	0.02074 kPa
325.6 K	0.02381 kPa
327.2 K	0.02708 kPa
327.6 K	0.0289 kPa
330.6 K	0.03472 kPa and 0.03551 kPa
333.3 K	0.04451 kPa
334.8 K	0.04701 kPa
335.7 K	0.05254 kPa
337.5 K	0.05938 kPa
340.7 K	0.0733 kPa
343.6 K	0.09061 kPa

CCN(CC)C(C)=O [N,N-diethylacetamide]
Settings	vapor or sublimation pressure
293.2 K	0.05427 kPa
295.7 K	0.06498 kPa
298.1 K	0.07907 kPa
300.7 K	0.09611 kPa
303.3 K	0.1134 kPa
308.2 K	0.1595 kPa and 0.1564 kPa
310.6 K	0.1826 kPa
313.1 K	0.218 kPa
313.2 K	0.22 kPa
318.2 K	0.3145 kPa and 0.3097 kPa
323.1 K	0.4179 kPa
323.3 K	0.4212 kPa
325.7 K	0.4988 kPa
328.2 K	0.5921 kPa and 0.5695 kPa
330.7 K	0.6838 kPa
333.1 K	0.8078 kPa
333.2 K	0.771 kPa
335.7 K	0.882 kPa
338.3 K	1.032 kPa

CCCCCCN(CCCCCC)C(C)=O [N,N-dihexylacetamide]
Settings	vapor or sublimation pressure [kPa]
319.4 K	0.0004
322.4 K	0.00053
325.5 K	0.00071
328.4 K	0.00091
329.2 K	0.00098
331.5 K	0.00123
332.4 K	0.0013
332.5 K	0.00136
335.5 K	0.0017
338.5 K	0.00228
342.2 K	0.00302
346.4 K	0.0043
349.5 K	0.0056
350.4 K	0.00612
353.3 K	0.00738
353.4 K	0.00736
356.3 K	0.00918
359.2 K	0.01148
360.3 K	0.01247
362.3 K	0.01466
364.2 K	0.01684

CC(=O)N(C)C [N,N-dimethylethanamide]
Settings	vapor or sublimation pressure
273.3 K	0.03543 kPa and 0.03607 kPa and 0.035 kPa
274.7 K	0.03924 kPa
275.9 K	0.04222 kPa
276.5 K	0.04528 kPa
276.9 K	0.04668 kPa
277.3 K	0.05063 kPa
278.2 K	0.05175 kPa
278.6 K	0.05303 kPa
279.7 K	0.058 kPa
281.3 K	0.06713 kPa and 0.07108 kPa
281.4 K	0.06481 kPa
281.9 K	0.06864 kPa
282.4 K	0.07295 kPa
283 K	0.07741 kPa
285.3 K	0.0977 kPa
285.8 K	0.09266 kPa
286.4 K	0.09668 kPa
287.3 K	0.1021 kPa
288.2 K	0.1121 kPa
288.3 K	0.1147 kPa
289.3 K	0.1307 kPa
290.2 K	0.1314 kPa
290.8 K	0.1301 kPa
291.2 K	0.1351 kPa
291.3 K	0.1465 kPa
291.8 K	0.1543 kPa
293.2 K	0.1571 kPa
293.3 K	0.1763 kPa
294.2 K	0.1744 kPa
296.2 K	0.2041 kPa
296.3 K	0.2 kPa
297.2 K	0.2169 kPa
297.3 K	0.2291 kPa
298.1 K	0.2275 kPa
298.2 K	0.2301 kPa
300.2 K	0.2612 kPa
300.7 K	0.2666 kPa and 0.2829 kPa
301.3 K	0.2983 kPa
302.2 K	0.3174 kPa
302.7 K	0.3279 kPa
303 K	0.3058 kPa
303.2 K	0.3248 kPa
304.7 K	0.3758 kPa
305.2 K	0.3538 kPa and 0.3944 kPa
305.6 K	0.3795 kPa
308 K	0.4422 kPa
308.1 K	0.4305 kPa
310.6 K	0.5041 kPa
313.1 K	0.6025 kPa
313.2 K	0.6035 kPa
315.7 K	0.711 kPa
316.4 K	0.7274 kPa
318.2 K	0.8426 kPa
320.8 K	0.9968 kPa
323.2 K	1.115 kPa
323.3 K	1.128 kPa
325.8 K	1.285 kPa
328.3 K	1.481 kPa
